Where two headings read alike, the source gives them in different places.
Experiments:
Kir2.1 [1] = details: Xenopus oocytes, at −120 mV; ref Schram et al. 23; cited from earlier work
Kir2.1 [2] = details: HEK cells, at −90 mV; ref Shen et al. 43; cited from earlier work
human Kir2.1 channels = target: T1, human Kir2.1 channels (Homo sapiens, UniProt P63252); test: cell-based; type: cell-based
T1 sequence (P63252 1-427): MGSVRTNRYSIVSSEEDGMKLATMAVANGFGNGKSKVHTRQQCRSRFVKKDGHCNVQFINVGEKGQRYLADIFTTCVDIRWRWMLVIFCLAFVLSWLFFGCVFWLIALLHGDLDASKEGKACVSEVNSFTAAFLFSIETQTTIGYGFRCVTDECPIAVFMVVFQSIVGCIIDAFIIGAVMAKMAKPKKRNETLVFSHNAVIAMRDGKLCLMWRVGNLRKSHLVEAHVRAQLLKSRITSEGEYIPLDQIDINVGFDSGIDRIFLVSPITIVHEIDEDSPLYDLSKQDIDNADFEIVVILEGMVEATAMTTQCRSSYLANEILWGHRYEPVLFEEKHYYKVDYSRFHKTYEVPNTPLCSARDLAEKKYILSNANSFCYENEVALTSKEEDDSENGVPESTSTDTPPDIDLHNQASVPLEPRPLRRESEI

IK1 currents = details: 3 μM chloroquine, at −100 mV; cited from earlier work
Kir2.1 [3] = details: at −100 mV, manual patch-clamp; cited from earlier work

| SMILES | IC50 (Kir2.1 [1]) [µM] | IC50 (Kir2.1 [2]) [µM] | Hill coefficient (nH) (human Kir2.1 channels) | decrease of IK1 currents (IK1 currents) [%] | Hill slope nH (95% CI) (human Kir2.1 channels) | IC50 (human Kir2.1 channels) [µM] | IC50 (Kir2.1 [3]) [µM] |
| --- | --- | --- | --- | --- | --- | --- | --- |
| [Ba+2].[Cl-].[Cl-] [Ba^2+] | 16 | 7.9 | 1.03 |  |  |  |  |
| CCN(CC)CCCC(C)Nc1ccnc2cc(Cl)ccc12 (stereo not drawn) [Chloroquine, 4-N-(7-chloroquinolin-4-yl)-1-N,1-N-diethylpentane-1,4-diamine] |  |  |  | 67 | 0.80 (0.76–0.83) | 1.9 |  |
| CN(C)CCCN1c2ccccc2Sc2ccc(Cl)cc21 [Chlorpromazine, 3-(2-chlorophenothiazin-10-yl)-N,N-dimethylpropan-1-amine] |  |  |  |  | 1.7 (1.4–2.1) | 3.8 |  |
| COc1ccc(CNCc2cccc3ccccc23)cc1 [ML133, N-(4-methoxybenzyl)-1-(naphthalene-1-yl) methanamine] |  |  |  |  | 2.6 (2.2–3.1) | 1.2 | 1.8 |
| COc1ccc(CCCOC(Cn2ccnc2)c2ccc(OC)cc2)cc1 (stereo not drawn) [SKF-96365, 1-[2-(4-methoxyphenyl)-2-[3-(4-methoxyphenyl)propoxy]ethyl]imidazole] |  |  |  |  | 1.3 (1.1–1.5) | 4.7 |  |
| COc1ccc(C2CCN(CC[C@H]3CCOc4ccccc43)CC2)cc1OC [Terikalant, 1-[2-[(4S)-3,4-dihydro-2H-chromen-4-yl]ethyl]-4-(3,4-dimethoxyphenyl)piperidine] |  |  |  |  | 0.98 (0.88–1.1) | 8.4 |  |

From publication PMC6479253 (Assay and Drug Development Technologies, 2019)
